Measurements published in patent US10294218B2 (VIROSTATICS SRL, priority 2012, dated 2019).
Structures can show the parent of a compound that is named as a salt. Where two headings read alike, the source gives them in different places.

Experiments:
[1] = test system: Primary T cells; assay: Antiproliferative activity (AP), mitotic index by flow cytometry; format: cell-based; settings: read-out: AP50 (Inhibitory concentration 50% for antiproliferative capacity)
Protocol: Primary T cells are cultured and exposed to different concentrations of the test compounds. Cell proliferation is analysed by measuring mitotic index (ie the number of cell divisions a population of cells undergoes) through flow cytometry based techniques. Mitotic index is expressed as percentage of untreated control. Inhibition of cell proliferation (AP) is then calculated (AP=100 minus % mitotic index compared to control, AP of control=0%). Inhibitory concentration 50% for antiproliferative capacity (AP50) is calculated.
(§1) In Tables 2, 3 and 4, ND means Not Determined.

[2] = test system: Primary T cells; assay: Cytotoxicity, percentage of viable cells by flow cytometry; format: cell-based; settings: viability
Protocol: Primary T cells are cultured and treated with different concentrations of the test compound. Viability is analysed by measuring through flow cytometry based techniques the percentage of viable cells, compared to untreated control=100%).
as §1

[3] = test system: laboratory strain of HIV-1; assay: Antiviral activity against HIV (AV), p24 in infected activated primary T cells; format: cell-based; settings: for IC50: read-out: AV50 (Inhibitory concentration 50% for antiviral activity); for antiviral and antiproliferative activity and cytotoxicity profile (in words): summary of AV, AP and cytotoxicity assays; for anti-HIV and cytotoxicity profile (in words): summary of AV and cytotoxicity assays
Protocol: Activated primary T cells are infected with a laboratory strain of HIV-1, then cultured and exposed to different concentrations of the test compounds. HIV replication is analysed by measuring the viral protein p24 and expressed as percentage of untreated control. Inhibition of viral replication (AV) is then calculated (AV=100 minus the % p24 compared to control, AV of control=0%). Inhibitory concentration 50% for antiviral activity (AV50) is calculated.
as §1

[4] = target: human CDK9/CyclinT kinase complex (Homo sapiens (Human), UniProt P50750); assay: In vitro CDK9/CyclinT assay (IMAP fluorescent polarization); format: biochemical
human CDK9/CyclinT kinase complex, sequence (P50750 whole entry): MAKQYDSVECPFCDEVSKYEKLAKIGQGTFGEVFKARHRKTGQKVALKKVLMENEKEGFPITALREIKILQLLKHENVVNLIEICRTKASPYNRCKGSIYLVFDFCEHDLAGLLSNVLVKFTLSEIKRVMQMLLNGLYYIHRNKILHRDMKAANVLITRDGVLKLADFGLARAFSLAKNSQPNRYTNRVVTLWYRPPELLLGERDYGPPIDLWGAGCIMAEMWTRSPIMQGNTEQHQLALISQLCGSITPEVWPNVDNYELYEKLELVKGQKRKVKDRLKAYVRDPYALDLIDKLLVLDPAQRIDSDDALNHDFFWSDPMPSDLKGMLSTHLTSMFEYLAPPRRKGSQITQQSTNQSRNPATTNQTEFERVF
human CDK9/CyclinT kinase complex, sequence (O60563 whole entry partner): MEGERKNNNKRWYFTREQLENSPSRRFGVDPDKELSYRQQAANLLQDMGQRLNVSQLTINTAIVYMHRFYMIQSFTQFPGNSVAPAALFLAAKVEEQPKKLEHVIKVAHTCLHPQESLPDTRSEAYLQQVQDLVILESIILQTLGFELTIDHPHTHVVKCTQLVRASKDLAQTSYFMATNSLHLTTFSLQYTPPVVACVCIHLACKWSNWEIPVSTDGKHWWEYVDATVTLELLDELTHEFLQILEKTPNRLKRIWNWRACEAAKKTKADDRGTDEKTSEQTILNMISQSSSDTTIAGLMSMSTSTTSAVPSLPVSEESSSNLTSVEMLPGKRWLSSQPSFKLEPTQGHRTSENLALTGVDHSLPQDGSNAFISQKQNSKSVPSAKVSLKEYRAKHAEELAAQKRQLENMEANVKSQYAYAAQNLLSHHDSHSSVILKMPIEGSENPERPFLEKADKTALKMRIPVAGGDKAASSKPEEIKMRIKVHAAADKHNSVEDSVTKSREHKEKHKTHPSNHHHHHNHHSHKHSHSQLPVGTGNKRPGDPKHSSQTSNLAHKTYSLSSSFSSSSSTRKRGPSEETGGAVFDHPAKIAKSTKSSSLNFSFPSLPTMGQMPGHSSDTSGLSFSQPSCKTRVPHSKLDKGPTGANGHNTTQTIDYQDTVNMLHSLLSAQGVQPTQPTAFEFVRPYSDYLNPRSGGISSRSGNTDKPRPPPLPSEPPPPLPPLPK
Protocol: The activity of the compounds described in the present invention can be determined by measuring the phosphorylation of a fluorescently-labeled peptide by human CDK9/CyclinT kinase complex by fluorescent polarization using a commercially available IMAP Screening Express Assay Kit (Molecular devices).
Test compounds were diluted in 100% DMSO to 5 mM stock concentration, then further dilutions were made in H2O or 100% DMSO to desirable concentrations.
Each reaction consisted of 5 nM enzyme: CDK9/CyclinT (Proqinase cat#0371-0345-1), 400 nM TAMRA-Rbtide (synthetic 15-mer peptide derived from human retinoblastoma tumor suppressor protein labeled with TAMRA dye, Genecust Europe), 12 μM ATP (=Kmapp, Sigma-Aldrich) and kinase buffer: 20 mM MOPS pH 7 (Sigma-Aldrich), 1 mM DTT (Sigma-Aldrich), 10 mM MgCl2 (Sigma-Aldrich), 0.01% Tween 20 (Sigma-Aldrich).
For each reaction, 4 or 6 μl containing TAMRA-Rbtide, ATP and kinase buffer were combined with 2 μl diluted compound in H2O or 0.028 μl compound in 100% DMSO. The kinase reaction was started by the addition of 2 μl diluted enzyme. The reaction was allowed to run for 1 hour at room temperature. The reaction was stopped by adding 15 μl IMAP beads (1:400 beads in progressive (100% buffer A) 1× buffer).

[5] = Human immunodeficiency virus 1, T-cell
[6] = T-cell, primary T cells, mitotic index

Structure (SMILES)	IC50 ([1]; T-cell) [nM]	TD50 (Toxic dose 50%) [2] [µM]	IC50 [3, 5] [nM]	antiviral and antiproliferative activity and cytotoxicity profile (in words) [3]	also measured
COc1ccc(Nc2cc(-c3ccccc3OC)ncn2)cc1CN1C(=O)c2ccccc2C1=O [Example 3, 2-(2-Methoxy-5-(6-(2-methoxyphenyl)pyrimidin-4-ylamino)benzyl)isoindoline-1,3-dione]	> 1000	>5			
COc1ccccc1-c1cc(Nc2ccc(N(C)C)cc2)ncn1 [Example 5, N^1-(6-(2-methoxyphenyl)pyrimidin-4-yl)-N^4,N^4-dimethylbenzene-1,4-diamine]	150	>10	300	good antiviral and antiproliferative activity and a good cytotoxicity profile	
COc1ccc(Nc2cc(-c3ccccc3OC)ncn2)cc1OCCN1CCOCC1 [Example 8, N-(4-Methoxy-3-(2-morpholinoethoxy)phenyl)-6-(2-methoxyphenyl)pyrimidin-4-amine]	> 1500	>1.5	400		
COc1ccccc1-c1cc(Nc2ccc(Cl)c(CN3C(=O)c4ccccc4C3=O)c2)ncn1 [Example 20, 2-(2-Chloro-5-(6-(2-methoxyphenyl)pyrimidin-4-ylamino)benzyl)isoindoline-1,3-dione]	> 500	>0.5	> 1500		
COc1ccc(Nc2cc(-c3ccccc3OC)ncn2)cc1NC(=O)OCC(Cl)(Cl)Cl [Example 27, 2,2,2-Trichloroethyl 2-methoxy-5-(6-(2-methoxyphenyl)pyrimidin-4-ylamino)phenylcarbamate]	> 500	>0.5	> 500		
COc1ccc(Nc2cc(-c3ccccc3OC)ncn2)cc1OCc1ccccc1 [Example 36, N-(3-(Benzyloxy)-4-methoxyphenyl)-6-(2-methoxyphenyl)pyrimidin-4-amine]	> 5000	>5			
CNCc1cc(Nc2cc(-c3ccccc3OC)ncn2)ccc1OC [Example 37, N-(4-Methoxy-3-((methylamino)methyl)phenyl)-6-(2-methoxyphenyl)pyrimidin-4-amine]		2			IC50 ([3]; HIV-1 infected activated primary T cells, p24): > 1500 nM; IC50 ([1]; primary T cells, mitotic index): 2000 nM
COc1ccc(Nc2cc(-c3ccccc3OC)ncn2)cc1C(=O)N(C)N [Example 46, 2-Methoxy-5-[6-(2-methoxy-phenyl)-pyrimidin-4-ylamino]-benzoic acid N-methyl-hydrazide]		>10	5000		
COc1ccccc1-c1cc(Nc2ccc(N(C)C)c(F)c2)ncn1 [Example 106, 2-Fluoro-N^4-[6-(2-methoxy-phenyl)-pyrimidin-4-yl]-N^1,N^1-dimethyl-benzene-1,4-diamine Hydrochloride]					IC50 [4]: < 1000 nM
COc1ccccc1-c1cc(Nc2ccc(Cl)c(O)c2)ncn1 [Example 107, 2-Chloro-5-[6-(2-methoxy-phenyl)-pyrimidin-4-ylamino]-phenol Hydrochloride]					IC50 [4]: < 1000 nM
CCOc1ccc(Nc2cc(-c3ccc(F)cc3OC)ncn2)cc1C(N)=O [Example 112, 2-Ethoxy-5-[6-(4-fluoro-2-methoxy-phenyl)-pyrimidin-4-ylamino]-benzamide]			6	good antiviral and antiproliferative activity and a good cytotoxicity profile	IC50 [1, 6]: < 3 nM
COc1ccc(Nc2cc(-c3ccc(F)cc3OC)ncn2)cc1NC(C)=O [Example 117, N-{5-[6-(4-Fluoro-2-methoxy-phenyl)-pyrimidin-4-ylamino]-2-methoxy-phenyl}-acetamide]		>2	200		
COC(=O)Nc1cc(Nc2cc(-c3ccc(F)cc3OC)ncn2)ccc1OC [Example 118, {5-[6-(4-Fluoro-2-methoxy-phenyl)-pyrimidin-4-ylamino]-2-methoxy-phenyl}-carbamic Acid Methyl Ester]		>2	1500		
COc1ccc(Nc2cc(-c3ccc(F)cc3OC)ncn2)cc1OC(C)=O [Example 126, Acetic Acid 5-[6-(4-fluoro-2-methoxy-phenyl)-pyrimidin-4-ylamino]-2-methoxy-phenyl Ester]		>2	100		
COc1ccc(Nc2cc(-c3cc(F)ccc3OC)ncn2)cc1C(N)=O [Example 127, 5-[6-(5-Fluoro-2-methoxy-phenyl)-pyrimidin-4-ylamino]-2-methoxy-benzamide]	< 80		3	good antiviral and antiproliferative activity and a good cytotoxicity profile	
COc1ccc(Nc2cc(-c3ccc(F)cc3OC)ncn2)cc1C(N)=O [Example 128, 5-[6-(4-Fluoro-2-methoxy-phenyl)-pyrimidin-4-ylamino]-2-methoxy-benzamide]	30		< 3	good antiviral and antiproliferative activity and a good cytotoxicity profile	
CCOc1ccccc1-c1cc(Nc2ccc(OC)c(C(N)=O)c2)ncn1 [Example 129, 5-[6-(2-Ethoxy-phenyl)-pyrimidin-4-ylamino]-2-methoxy-benzamide]	< 80		10	good antiviral and antiproliferative activity and a good cytotoxicity profile	
CCOc1ccc(F)cc1-c1cc(Nc2cc(F)c(OC)c(C(N)=O)c2)ncn1 [Example 142, 5-[6-(2-Ethoxy-5-fluoro-phenyl)-pyrimidin-4-ylamino]-3-fluoro-2-methoxy-benzamide]	40		40	good antiviral and antiproliferative activity and a good cytotoxicity profile	
COc1cc(F)c(Nc2cc(-c3ccccc3OC)ncn2)cc1C(N)=O [Example 143, 4-Fluoro-2-methoxy-5-[6-(2-methoxy-phenyl)-pyrimidin-4-ylamino]-benzamide]	> 80		16	good antiviral and antiproliferative activity and a good cytotoxicity profile	
COc1cc(F)c(Nc2cc(-c3cc(F)ccc3OC)ncn2)cc1C(N)=O [Example 144, 4-Fluoro-5-[6-(5-fluoro-2-methoxy-phenyl)-pyrimidin-4-ylamino]-2-methoxy-benzamide]	90		< 3	good antiviral and antiproliferative activity and a good cytotoxicity profile	
CCOc1ccccc1-c1cc(Nc2cc(C(N)=O)c(OC)cc2F)ncn1 [Example 145, 5-[6-(2-Ethoxy-phenyl)-pyrimidin-4-ylamino]-4-fluoro-2-methoxy-benzamide]	50		30	good antiviral and antiproliferative activity and a good cytotoxicity profile	
COc1cc(F)c(Nc2cc(-c3ccc(F)cc3OC)ncn2)cc1C(N)=O [Example 146, 4-Fluoro-5-[6-(4-fluoro-2-methoxy-phenyl)-pyrimidin-4-ylamino]-2-methoxy-benzamide]	40		< 3	good antiviral and antiproliferative activity and a good cytotoxicity profile	
CCOc1cc(F)ccc1-c1cc(Nc2cc(C(N)=O)c(OC)cc2F)ncn1 [Example 147, 5-[6-(2-Ethoxy-4-fluoro-phenyl)-pyrimidin-4-ylamino]-4-fluoro-2-methoxy-benzamide]	40		5	good antiviral and antiproliferative activity and a good cytotoxicity profile	
CN1CC[C@H](c2c(O)cc(O)c3c(=O)cc(-c4ccccc4Cl)oc23)[C@H](O)C1 [Flavopiridol, reference compound]					IC50 ([3]; Human immunodeficiency virus 1, T-cell, HIV-1 infected activated primary T cells, p24): 100 nM; anti-HIV and cytotoxicity profile (in words) [3]: poor anti-HIV and cytotoxicity profile; IC50 [1, 6]: 30 nM
CC[C@H](CO)Nc1nc(NCc2ccccc2)c2ncn(C(C)C)c2n1 [Roscovitine, reference compound]		8			anti-HIV and cytotoxicity profile (in words) [3]: poor anti-HIV and cytotoxicity profile
